Data on 18 molecules can be found in patent publication US11052072B2, “Pyrazolo[4,3-C] quinoline derivatives for inhibition of β-glucuronidase” (Kaohsiung Medical University, priority 2015, dated 2021).

The target of series [1] is E. coli β-glucuronidase (eβG) (Escherichia coli, UniProt P05804). As to the kind of experiment: Inhibition of purified recombinant eβG activity (pNPG substrate, OD420). The following applies: for Inhibition efficacy of eβG activity compared with βG-Inh: FIG. 1; for remaining activity at 10 µM: read-out: Percent activity of E. coli-glucuronidase at 10 μM (%); for Selective inhibition of eβG versus hβG (in words): recombinant eβG and hβG, serial dilution of inhibitors (FIG. 1). In kind it is biochemical. As to the method:
(§1) The pyrazolo[4,3-c]quinoline derivatives were examined for their inhibition against eβG or hβG activity. Purified recombinant eβG or hβG proteins were incubated with serial dilution of the inhibitors, respectively. The βG activity was determined by color development of a βG substrate, pNPG. The hydrolysis product of pNPG, PNP was measured by OD420.

Series [2] addresses T1, human liver-glucuronidase (hβG) (Homo sapiens, UniProt P08236).
T1 sequence (P08236 23-651): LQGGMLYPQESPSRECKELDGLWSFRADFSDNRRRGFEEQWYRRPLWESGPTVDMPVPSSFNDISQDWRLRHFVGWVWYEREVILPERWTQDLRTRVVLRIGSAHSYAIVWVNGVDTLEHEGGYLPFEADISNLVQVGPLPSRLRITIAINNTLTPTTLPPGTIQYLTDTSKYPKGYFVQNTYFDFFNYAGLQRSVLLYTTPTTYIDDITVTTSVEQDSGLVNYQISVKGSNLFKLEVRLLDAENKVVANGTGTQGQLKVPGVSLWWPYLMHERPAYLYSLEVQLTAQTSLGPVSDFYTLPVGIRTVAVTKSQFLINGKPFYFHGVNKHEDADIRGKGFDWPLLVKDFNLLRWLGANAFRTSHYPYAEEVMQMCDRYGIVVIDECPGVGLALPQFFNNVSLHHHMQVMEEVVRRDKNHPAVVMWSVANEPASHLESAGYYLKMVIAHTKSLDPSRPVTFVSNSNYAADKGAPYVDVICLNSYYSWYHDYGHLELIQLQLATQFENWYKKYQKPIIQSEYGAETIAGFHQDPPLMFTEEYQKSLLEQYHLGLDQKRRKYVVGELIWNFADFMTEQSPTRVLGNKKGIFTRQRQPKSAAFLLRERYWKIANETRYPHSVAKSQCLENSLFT
The series can be described thus: Inhibition of purified recombinant hβG activity (pNPG substrate, OD420). The format is biochemical. To be noted: read-out: Percent activity of human liver-glucuronidase at 10 μM (%). As to the method:
as §1

Another series has as its target T2, endogenous eβG activity (Escherichia coli, UniProt P05804).
T2 construct: endogenous in cells; host or cells: BL21 E. coli
As to the kind of experiment: Endogenous β-glucuronidase activity assay in BL21 E. coli cells. The format is cell-based. To be noted: at both low (10 μM) or high concentration (50 μM) (FIG. 2). As to the method: The pyrazolo[4,3-c]quinoline derivatives were examined for their inhibition against endogenous eβG activity. This assay is similar with the in vitro assay. BL21 E. coli cells were grown to an OD600 of 0.35 in LB medium. E. coli were 4 times diluted and incubated with each inhibitor. The endogenous eβG activity was measured by detecting PNP as described.

Another series concerns TOP10 E. coli cells. As to the kind of experiment: E. coli growth assay (OD600). In kind it is cell-based. To be noted: 100 μM; OD600 at 6 hour after treatment; TOP10 E. coli (FIG. 4). The protocol: The pyrazolo[4,3-c]quinoline derivatives were examined for effects on the growth of E. coli. TOP10 E. coli cells were grown to an OD600 of 0.35 in LB medium and treated with each inhibitor. E. coli cell cultures were monitored by reading OD600 at 6 hour after treatment. The cell viability were compared to non-inhibitor control group and shown in % control.

A further series deals with intestinal βG activity. The series can be described thus: In vivo image of intestinal β-glucuronidase activity (FDGlcU pro-probe). The arrangement: species or system Balb/cJ mice. To be noted: mice, oral 60 μg/200 μl per day for five days; FDGlcU on sixth day (FIG. 5A). As to the method:
17 (TCH-3511) or 32 (TCH-3510) was examined for its inhibition against intestinal βG activity in mice by in vivo image of eβG activity. 5 (TCH-3562), 17 (TCH-3511) or 32 (TCH-3510) was dissolved in ddH2O. Healthy 6-10 week old female Balb/cJ mice were oral administrated with 5 (TCH-3562), 17 (TCH-3511), 32 (TCH-3510) or ddH2O per day (60 μg/200 μl) for five consecutive days. FDGlcU, a βG fluorescent pro-probe was oral feed at the sixth day. The βG activity was detected by in vivo optical imaging system.

Where [3] appears, read: 10 μM, purified recombinant hβG, pNPG, means ± S.D. of at least three separate experiments.

Where two headings read alike, the source gives them in different places.

Sequence of E. coli β-glucuronidase (eβG) (P05804 whole entry): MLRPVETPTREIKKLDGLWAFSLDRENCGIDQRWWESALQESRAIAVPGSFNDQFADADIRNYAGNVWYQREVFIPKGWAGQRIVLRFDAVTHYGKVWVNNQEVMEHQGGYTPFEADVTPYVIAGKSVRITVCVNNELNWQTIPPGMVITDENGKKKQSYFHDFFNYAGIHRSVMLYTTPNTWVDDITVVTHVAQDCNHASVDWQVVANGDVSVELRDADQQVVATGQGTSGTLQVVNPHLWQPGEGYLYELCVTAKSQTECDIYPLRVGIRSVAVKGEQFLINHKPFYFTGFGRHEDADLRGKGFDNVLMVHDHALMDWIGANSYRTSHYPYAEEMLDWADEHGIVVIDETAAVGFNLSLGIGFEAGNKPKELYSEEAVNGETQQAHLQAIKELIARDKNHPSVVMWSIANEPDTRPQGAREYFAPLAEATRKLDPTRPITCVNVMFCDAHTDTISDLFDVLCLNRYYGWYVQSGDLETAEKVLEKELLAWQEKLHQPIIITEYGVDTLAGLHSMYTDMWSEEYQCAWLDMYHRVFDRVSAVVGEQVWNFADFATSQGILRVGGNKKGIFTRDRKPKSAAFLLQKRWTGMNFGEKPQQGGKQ
T2 sequence (P05804 whole entry): as above

In turn, `Nc1n[nH]c2c1c(Nc1ccc(Cl)cc1)nc1ccccc12` [Compound 4, 3-Amino-4-(4-chlorophenylamino)-1H-pyrazolo[4,3-c]quinoline] came in with a melting point of 246 to 248 °C. For the same molecule, in series [1], the “Inhibition efficacy of eβG activity compared with βG-Inh” value is given as “better inhibition efficacy of eβG activity than βG-Inh”, the remaining activity at 10 µM was found to be 4.5 ± 0.71% and the “Selective inhibition of eβG versus hβG (in words)” value (shortened to “Selective inhibition”) is reported as “selectively inhibited eβG activity but not hβG”. Moreover, the remaining activity at 10 µM in series [2] (setting [3]) is 113 ± 2.83%. Besides, the “Inhibition efficacy of endogenous eβG activity compared with βG-Inh” value on endogenous eβG activity is “better inhibition efficacy of endogenous eβG activity than βG-Inh”.

`Cc1ccc(Nc2nc3ccccc3c3[nH]nc(N)c23)cc1` [Compound 5, 3-Amino-4-(4-methylphenylamino)-1H-pyrazolo[4,3-c]quinoline] registered a melting point of 292 to 294 °C. For the same molecule, in series [1], the “Inhibition efficacy of eβG activity compared with βG-Inh” value is reported as “better inhibition efficacy of eβG activity than βG-Inh”, the remaining activity at 10 µM is 4.5 ± 0.71% and the “Selective inhibition” value is given as “selectively inhibited eβG activity but not hβG”. In addition, in series [2] (setting [3]), the remaining activity at 10 µM is 110 ± 2.12%. The “Effects on E. coli growth” value in the series with TOP10 E. coli cells was “no effects on E. coli growth”. Also, the “Inhibition efficacy of endogenous eβG activity compared with βG-Inh” value at endogenous eβG activity was “better inhibition efficacy of endogenous eβG activity than βG-Inh”.

`Nc1n[nH]c2c1c(Nc1ccc(O)cc1)nc1ccccc12` [Compound 15, 3-Amino-4-(4-hydroxyphenylamino)-1H-pyrazolo[4,3-c]quinoline] came in with a melting point of 347 to 349 °C. Further, the remaining activity at 10 µM in series [1] stood at 7 ± 1%. In series [2] (setting [3]), the remaining activity at 10 µM is 95 ± 4.24%.

Take `Nc1ccc(Nc2nc3ccccc3c3[nH]nc(N)c23)cc1` [Compound 16, 3-Amino-4-(4-aminophenylamino)-1H-pyrazolo[4,3-c]quinoline]: the melting point lay within 355 to 356 °C. The remaining activity at 10 µM in series [1] is 8 ± 1%. In addition, the remaining activity at 10 µM in series [2] (setting [3]) was 82.5 ± 3.54%.

As to `Nc1n[nH]c2c1c(Nc1ccc(C(F)(F)F)cc1)nc1ccccc12` [Compound 18, 3-Amino-4-(4-trifluoromethylphenylamino)-1H-pyrazolo[4,3-c]quinoline], the melting point was 251 to 252 °C. The remaining activity at 10 µM in series [1] was found to be 4.5 ± 0.71%. For the same molecule, the remaining activity at 10 µM in series [2] (setting [3]) was determined as 106 ± 2.83%.

Take `COc1ccc(Nc2nc3ccccc3c3[nH]nc(N)c23)cc1` [Compound 19, 3-Amino-4-(4-methoxyphenylamino)-1H-pyrazolo[4,3-c]quinoline]: the melting point was in the range of 228 to 230 °C. In addition, the remaining activity at 10 µM in series [1] amounted to 3 ± 1%. Further, the remaining activity at 10 µM in series [2] (setting [3]) worked out at 102 ± 2.12%.

`Nc1n[nH]c2c1c(Nc1cccc(Cl)c1)nc1ccccc12` [Compound 26, N^4-(3-Chlorophenyl)-1H-pyrazolo[4,3-c]quinoline-3,4-diamine] returned a melting point of 227 to 229 °C. Also, in series [1], the remaining activity at 10 µM amounted to 14.9 ± 2.31%. In addition, the remaining activity at 10 µM in series [2] (setting [3]) worked out at 97.78 ± 0.01%.

Molecule `COc1cccc(Nc2nc3ccccc3c3[nH]nc(N)c23)c1` [Compound 27, 3-Amino-4-(3-methoxyphenylamino)-1H-pyrazolo[4,3-c]quinoline] displayed a melting point of 184 to 186 °C. For the same molecule, the remaining activity at 10 µM in series [1] came to 8 ± 1.41%. Also, the remaining activity at 10 µM in series [2] (setting [3]) came to 107 ± 1.41%.

`CC(=O)c1cccc(Nc2nc3ccccc3c3[nH]nc(N)c23)c1` [Compound 28, 3-Amino-4-(3-acetylphenylamino)-1H-pyrazolo[4,3-c]quinoline]: the melting point was > 380 °C. The remaining activity at 10 µM in series [1] came out at 91 ± 1%. In addition, in series [2] (setting [3]), the remaining activity at 10 µM amounted to 93 ± 2.83%.

The molecule `Nc1n[nH]c2c1c(Nc1ccccc1O)nc1ccccc12` [Compound 29, 3-Amino-4-(2-hydroxyphenylamino)-1H-pyrazolo[4,3-c]quinoline] returned a melting point of 156 to 157 °C. In addition, the remaining activity at 10 µM in series [1] turned out to be 7 ± 1%. In series [2] (setting [3]), the remaining activity at 10 µM stood at 104 ± 2.12%.

The molecule `Cc1ccccc1Nc1nc2ccccc2c2[nH]nc(N)c12` [Compound 30, N^4-(o-Tolyl)-1H-pyrazolo[4,3-c]quinoline-3,4-diamine] yielded a melting point of 228 to 230 °C. Besides, the remaining activity at 10 µM in series [1] was 17 ± 2.1%. In series [2] (setting [3]), the remaining activity at 10 µM came to 95.69 ± 0.01%.

The molecule `Nc1n[nH]c2c1c(Nc1ccccc1Cl)nc1ccccc12` [Compound 31, N^4-(2-Chlorophenyl)-1H-pyrazolo[4,3-c]quinoline-3,4-diamine] registered a melting point of 243 to 244 °C. In addition, in series [1], the remaining activity at 10 µM is 29.7 ± 3%. For the same molecule, the remaining activity at 10 µM in series [2] (setting [3]) was 79.81 ± 0.01%.

For the molecule `COc1ccccc1Nc1nc2ccccc2c2[nH]nc(N)c12` [Compound 32, 3-Amino-4-(2-methoxyphenylamino)-1H-pyrazolo[4,3-c]quinoline], the melting point is 210 to 211 °C. In addition, in series [1], the “Inhibition efficacy of eβG activity compared with βG-Inh” value is given as “better inhibition efficacy of eβG activity than βG-Inh”, the remaining activity at 10 µM came to 3.5 ± 0.71% and the “Selective inhibition” value was “selectively inhibited eβG activity but not hβG”. In addition, the remaining activity at 10 µM in series [2] was 103 ± 1.41%. For the same molecule, the “Inhibition of intestinal βG activity (fluorescence signal in the intestine)” value in the series with intestinal βG activity is “significantly inhibit intestinal βG activity”. In addition, the “Effects on E. coli growth” value with TOP10 E. coli cells is given as “no effects on E. coli growth”. Moreover, at endogenous eβG activity, the “Inhibition efficacy of endogenous eβG activity compared with βG-Inh” value is listed as “better inhibition efficacy of endogenous eβG activity than βG-Inh”.

For `COc1ccc(NC(=O)Nc2n[nH]c3c2c(=O)[nH]c2ccccc23)cc1` [Compound 35, 1-(4-Methoxyphenyl)-3-(4-oxo-4,5-dihydro-1H-pyrazolo[4,3-c]-quinolin-3-yl)urea], the melting point fell in the range of 224 to 225 °C. The remaining activity at 10 µM in series [1] came out at 52 ± 4.24%. For the same molecule, the remaining activity at 10 µM in series [2] (setting [3]) was 81.5 ± 0.71%.

The molecule `O=C(Nc1ccccc1)Nc1n[nH]c2c1c(Nc1ccc(Cl)cc1)nc1ccccc12` [Compound 36, 1-{4-[(4-Chlorophenyl)amino]-1H-pyrazolo[4,3-c]quinolin-3-yl}-3-phenylurea] gave a melting point of 282 to 283 °C. In series [1], the remaining activity at 10 µM was found to be 4 ± 1%. Moreover, in series [2] (setting [3]), the remaining activity at 10 µM came out at 83.1 ± 1.29%.

`Cc1ccc(Nc2nc3ccccc3c3[nH]nc(NC(=O)Nc4ccccc4)c23)cc1` [Compound 37, 1-Phenyl-3-[4-(p-tolylamino)-1H-pyrazolo[4,3-c]quinolin-3-yl]urea] had a melting point of 212 to 213 °C. In addition, the remaining activity at 10 µM in series [1] was 3 ± 1%. In series [2] (setting [3]), the remaining activity at 10 µM was 82 ± 1.41%.

`COc1ccc(NC(=O)Nc2n[nH]c3c2c(Nc2ccc(Cl)cc2)nc2ccccc23)cc1` [Compound 38, 1-{4-[(4-Chlorophenyl)amino]-1H-pyrazolo[4,3-c]quinolin-3-yl}-3-(4-methoxyphenyl)urea] came in with a melting point of 211 to 212 °C. Besides, the remaining activity at 10 µM in series [1] stood at 4 ± 1%. In addition, in series [2] (setting [3]), the remaining activity at 10 µM came out at 85.5 ± 0.71%.

In the case of `COc1ccc(NC(=O)Nc2n[nH]c3c2c(Nc2ccc(C)cc2)nc2ccccc23)cc1` [Compound 39, 1-(4-Methoxyphenyl)-3-[4-(p-tolylamino)-1H-pyrazolo[4,3-c]-quinolin-3-yl]urea], the melting point is 163 to 164 °C. Moreover, in series [1], the remaining activity at 10 µM turned out to be 3.5 ± 0.71%. In addition, in series [2] (setting [3]), the remaining activity at 10 µM stood at 87.5 ± 2.12%.

For orientation: melting point means the temperature, or range, at which the solid turns liquid.
